Patent US6787525B1, “Glyceryl nucleotides, method for the production thereof and their use” (priority 1998, dated 2004)

Key:
SF-268 = experiment: In vitro cytostatic effect (SRB): SF-268, Cancer of the central nervous system; conditions: for GI50 / TGI: 48-hour incubation; for CC50: read-out: LC50, 48-hour incubation
NCI-H226 = experiment: In vitro cytostatic effect (SRB): NCI-H226, Lung cancer; conditions: for GI50 / TGI: 48-hour incubation; for CC50: read-out: LC50, 48-hour incubation
NCI-H23 = experiment: In vitro cytostatic effect (SRB): NCI-H23, Lung cancer; conditions: for GI50 / TGI: 48-hour incubation; for CC50: read-out: LC50, 48-hour incubation
SN12C = experiment: In vitro cytostatic effect (SRB): SN12C, Kidney cancer; conditions: for GI50 / TGI: 48-hour incubation; for CC50: read-out: LC50, 48-hour incubation
SK-MEL-28 = experiment: In vitro cytostatic effect (SRB): SK-MEL-28, Melanoma; conditions: for GI50 / TGI: 48-hour incubation; for CC50: read-out: LC50, 48-hour incubation
LOX IMVI = experiment: In vitro cytostatic effect (SRB): LOX IMVI, Melanoma; conditions: for GI50 / TGI: 48-hour incubation; for CC50: read-out: LC50, 48-hour incubation
SF-539 = experiment: In vitro cytostatic effect (SRB): SF-539, Cancer of the central nervous system; conditions: for GI50 / TGI: 48-hour incubation; for CC50: read-out: LC50, 48-hour incubation
HT29 = experiment: In vitro cytostatic effect (SRB): HT29, Intestinal cancer; conditions: for GI50 / TGI: 48-hour incubation; for CC50: read-out: LC50, 48-hour incubation
SNB-75 = experiment: In vitro cytostatic effect (SRB): SNB-75, Cancer of the central nervous system; conditions: for GI50 / TGI: 48-hour incubation; for CC50: read-out: LC50, 48-hour incubation
T-47D = experiment: In vitro cytostatic effect (SRB): T-47D, Breast cancer; conditions: for GI50 / TGI: 48-hour incubation; for CC50: read-out: LC50, 48-hour incubation
MDA-MB-435 = experiment: In vitro cytostatic effect (SRB): MDA-MB-435, Breast cancer; conditions: for GI50 / TGI: 48-hour incubation; for CC50: read-out: LC50, 48-hour incubation
SK-MEL-2 = experiment: In vitro cytostatic effect (SRB): SK-MEL-2, Melanoma; conditions: for GI50 / TGI: 48-hour incubation; for CC50: read-out: LC50, 48-hour incubation
M14 = experiment: In vitro cytostatic effect (SRB): M14, Melanoma; conditions: for GI50 / TGI: 48-hour incubation; for CC50: read-out: LC50, 48-hour incubation
ACHN = experiment: In vitro cytostatic effect (SRB): ACHN, Kidney cancer; conditions: for GI50 / TGI: 48-hour incubation; for CC50: read-out: LC50, 48-hour incubation
KM12 = experiment: In vitro cytostatic effect (SRB): KM12, Intestinal cancer; conditions: for GI50 / TGI: 48-hour incubation; for CC50: read-out: LC50, 48-hour incubation
HS 578T = experiment: In vitro cytostatic effect (SRB): HS 578T, Breast cancer; conditions: for GI50 / TGI: 48-hour incubation; for CC50: read-out: LC50, 48-hour incubation
MDA-N = experiment: In vitro cytostatic effect (SRB): MDA-N, Breast cancer; conditions: for GI50 / TGI: 48-hour incubation; for CC50: read-out: LC50, 48-hour incubation
MDA-MB-231/ATCC = experiment: In vitro cytostatic effect (SRB): MDA-MB-231/ATCC, Breast cancer; conditions: for GI50 / TGI: 48-hour incubation; for CC50: read-out: LC50, 48-hour incubation
OVCAR-5 = experiment: In vitro cytostatic effect (SRB): OVCAR-5, Ovarian cancer; conditions: for GI50 / TGI: 48-hour incubation; for CC50: read-out: LC50, 48-hour incubation
SR = experiment: In vitro cytostatic effect (SRB): SR, Leukemia; conditions: for CC50: read-out: LC50, 48-hour incubation
OVCAR-4 = experiment: In vitro cytostatic effect (SRB): OVCAR-4, Ovarian cancer; conditions: for GI50 / TGI: 48-hour incubation; for CC50: read-out: LC50, 48-hour incubation
IGROV1 = experiment: In vitro cytostatic effect (SRB): IGROV1, Ovarian cancer; conditions: for GI50 / TGI: 48-hour incubation; for CC50: read-out: LC50, 48-hour incubation
UACC-257 = experiment: In vitro cytostatic effect (SRB): UACC-257, Melanoma; conditions: for GI50 / TGI: 48-hour incubation; for CC50: read-out: LC50, 48-hour incubation
RPMI-8226 = experiment: In vitro cytostatic effect (SRB): RPMI-8226, Leukemia; conditions: for GI50 / TGI: 48-hour incubation; for CC50: read-out: LC50, 48-hour incubation
SK-OV-3 = experiment: In vitro cytostatic effect (SRB): SK-OV-3, Ovarian cancer; conditions: for GI50 / TGI: 48-hour incubation; for CC50: read-out: LC50, 48-hour incubation
A549/ATCC = experiment: In vitro cytostatic effect (SRB): A549/ATCC, Lung cancer; conditions: for GI50 / TGI: 48-hour incubation; for CC50: read-out: LC50, 48-hour incubation
A498 = experiment: In vitro cytostatic effect (SRB): A498, Kidney cancer
UO-31 = experiment: In vitro cytostatic effect (SRB): UO-31, Kidney cancer
[1] = read-out: LC50, 48-hour incubation

Nc1ccn(C2CCC(COP(=O)(O)OCC(O)COP(=O)(O)OCC3OC(n4cc(F)c(=O)[nH]c4=O)CC3O)O2)c(=O)n1 (racemic) [NSC 704533, 2′,3′-didesoxycytidylyl-(5′→1)-racglycerylyl-(3→5′)-5-fluoro-2′-desoxyuridine]
1.59 µM: GI50 (SNB-75)
37.9 µM: GI50 (SK-MEL-28)
1.42 µM: GI50 (T-47D)
1.88 µM: GI50 (HT29)
79.4 µM: GI50 (SK-MEL-2)
>1.00E − 04 mol/l: TGI (SF-268) | TGI (NCI-H226) | TGI (NCI-H23) | TGI (SN12C) | TGI (SK-MEL-28) | TGI (LOX IMVI) | TGI (SF-539) | TGI (HT29) | TGI (SNB-75) | TGI (T-47D) | TGI (MDA-MB-435) | TGI (SK-MEL-2) | TGI (M14) | TGI (ACHN) | TGI (KM12) | TGI (HS 578T) | TGI (MDA-N) | TGI (MDA-MB-231/ATCC) | TGI (OVCAR-5) | TGI (SR; 48-hour incubation) | TGI (OVCAR-4) | TGI (IGROV1) | TGI (UACC-257) | TGI (RPMI-8226) | TGI (SK-OV-3) | TGI (A549/ATCC)
4.76 µM: GI50 (MDA-MB-435)
95.5 µM: GI50 (MDA-MB-231/ATCC)
0.203 µM: GI50 (M14)
0.0979 µM: GI50 (NCI-H23)
0.0101 µM: GI50 (LOX IMVI)
< 0.01 µM: GI50 (SF-268) | GI50 (ACHN) | GI50 (SR; 48-hour incubation)
68 µM: GI50 (IGROV1)
11 µM: GI50 (RPMI-8226)
44.3 µM: GI50 (SK-OV-3)
0.0216 µM: GI50 (SF-539)
0.0477 µM: GI50 (A549/ATCC)
0.173 µM: GI50 (SN12C)
> 100 µM: CC50 (SF-268) | GI50 (NCI-H226) | CC50 (NCI-H226) | CC50 (NCI-H23) | CC50 (SN12C) | CC50 (SK-MEL-28) | CC50 (LOX IMVI) | CC50 (SF-539) | CC50 (HT29) | CC50 (SNB-75) | CC50 (T-47D) | CC50 (MDA-MB-435) | CC50 (SK-MEL-2) | CC50 (M14) | CC50 (ACHN) | CC50 (KM12) | CC50 (HS 578T) | CC50 (MDA-N) | CC50 (MDA-MB-231/ATCC) | CC50 (OVCAR-5) | CC50 (SR) | GI50 (OVCAR-4) | CC50 (OVCAR-4) | CC50 (IGROV1) | GI50 (UACC-257) | CC50 (UACC-257) | CC50 (RPMI-8226) | CC50 (SK-OV-3) | CC50 (A549/ATCC)
12.6 µM: GI50 (OVCAR-5)
14.5 µM: GI50 (KM12)
0.732 µM: GI50 (HS 578T)
25.4 µM: GI50 (MDA-N)

CCCCCCCCCCCCCCCCCCOC(COP(=O)(O)OCC1OC(n2cc(F)c(=O)[nH]c2=O)CC1O)COP(=O)(O)OCC1OC(n2ccc(N)nc2=O)C(O)C1O (racemic) [NSC 698688-A/1, arabinocytidylyl-(5′→1)-2-O-octadecyl-rac-glycerylyl-(3→5′)-5-fluoro-2′-deoxyuridine]
12.5 µM: GI50 (HT29)
0.346 µM: GI50 (A549/ATCC)
1.65 µM: GI50 (RPMI-8226)
74.7 µM: GI50 (KM12)
36.3 µM: GI50 (SK-OV-3)
1.4 µM: GI50 (LOX IMVI)
89.6 µM: GI50 (OVCAR-5)
7.23 µM: GI50 (NCI-H23)
58.5 µM: GI50 (OVCAR-4)
1.03E − 05 mol/l: TGI (SF-539)
3.53 µM: GI50 (M14)
33.8 µM: GI50 (MDA-MB-435)
57.8 µM: GI50 (SK-MEL-28)
> 100 µM: CC50 (SF-268) | CC50 (NCI-H226) | CC50 (NCI-H23) | CC50 (SN12C) | CC50 (SK-MEL-28) | CC50 (LOX IMVI) | CC50 (A498; [1]) | CC50 (HT29) | CC50 (SNB-75) | GI50 (T-47D) | CC50 (T-47D) | CC50 (MDA-MB-435) | GI50 (SK-MEL-2) | CC50 (SK-MEL-2) | CC50 (M14) | CC50 (ACHN) | CC50 (UO-31; [1]) | CC50 (KM12) | GI50 (HS 578T) | CC50 (HS 578T) | GI50 (MDA-N) | CC50 (MDA-N) | GI50 (MDA-MB-231/ATCC) | CC50 (MDA-MB-231/ATCC) | CC50 (OVCAR-5) | CC50 (SR) | CC50 (OVCAR-4) | CC50 (IGROV1) | CC50 (UACC-257) | CC50 (RPMI-8226) | CC50 (SK-OV-3) | CC50 (A549/ATCC)
8.62E − 05 mol/l: TGI (M14)
0.466 µM: GI50 (ACHN)
0.319 µM: GI50 (A498; 48-hour incubation)
20.4 µM: GI50 (SNB-75)
0.745 µM: GI50 (SF-268)
0.488 µM: GI50 (SF-539)
13.3 µM: GI50 (SN12C)
>1.00E − 04 mol/l: TGI (SF-268) | TGI (NCI-H226) | TGI (NCI-H23) | TGI (SN12C) | TGI (SK-MEL-28) | TGI (LOX IMVI) | TGI (A498; 48-hour incubation) | TGI (HT29) | TGI (SNB-75) | TGI (T-47D) | TGI (MDA-MB-435) | TGI (SK-MEL-2) | TGI (ACHN) | TGI (UO-31; 48-hour incubation) | TGI (KM12) | TGI (HS 578T) | TGI (MDA-N) | TGI (MDA-MB-231/ATCC) | TGI (OVCAR-5) | TGI (SR; 48-hour incubation) | TGI (OVCAR-4) | TGI (IGROV1) | TGI (UACC-257) | TGI (RPMI-8226) | TGI (SK-OV-3) | TGI (A549/ATCC)
21.3 µM: GI50 (UO-31; 48-hour incubation)
13.6 µM: GI50 (IGROV1)
49.8 µM: GI50 (UACC-257)
80.3 µM: CC50 (SF-539)
75.9 µM: GI50 (NCI-H226)
